Source: PubChem BioAssay (NCI)
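Method: 48-hour compound exposure of cells in 96-well plates, five concentrations, linear interpolation of endpoints. GI50 is the concentration that inhibits growth by half. TGI marks complete inhibition of growth.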

Experiments:
Assay in all cases: NCI tumour cell line growth inhibition, 48 h
[1] = system: A549 NSCLC
[2] = system: CCRF-CEM leukemia
[3] = system: HOP-62 NSCLC
[4] = system: K-562 leukemia
[5] = system: M14 melanoma
[6] = system: MCF7 breast
[7] = system: MDA-MB-231 breast
[8] = system: MDA-MB-435
[9] = system: SW-620 colon
[10] = system: SK-MEL-2 melanoma

| Compound | TGI [1] | TGI [2] | TGI [3] | TGI [4] | TGI [5] | TGI [6] | TGI [7] | TGI [8] | TGI [9] | TGI [10] | GI50 [1] | GI50 [2] | GI50 [3] | GI50 [4] | GI50 [5] | GI50 [6] | GI50 [7] | GI50 [8] | GI50 [10] | GI50 [9] |
| --- | --- | --- | --- | --- | --- | --- | --- | --- | --- | --- | --- | --- | --- | --- | --- | --- | --- | --- | --- | --- |
| COc1ccc2c3c([nH]c2c1)CCN(Cc1ccccc1)C3 | > 100 µM | > 100 µM | 80.2 µM | 51.3 µM | 34.8 µM | 33.8 µM | 66.4 µM | 60.6 µM | 51.7 µM |  |  |  |  |  |  |  |  |  |  |  |
| Cc1nc2[nH]ncn2c(=O)c1CCO | > 10 µM | > 10 µM | > 10 µM | > 10 µM | > 10 µM | > 10 µM | > 10 µM | > 10 µM | > 10 µM | > 10 µM |  |  |  |  |  |  |  |  |  |  |
| CC(CN(C)C)C(=O)c1ccccc1 (centres undefined) | > 100 µM | 27.2 µM | > 100 µM | > 100 µM | > 55 µM |  |  |  | 27 µM | 66.8 µM |  |  |  |  |  |  |  |  |  |  |
| COc1cc(C2c3cc4c(cc3[C@@H](Oc3ccc(F)cc3)C3COC(=O)[C@H]23)OCO4)cc(OC)c1O (some centres undefined) | > 100 µM | > 23.2 µM | 0.95 µM | 30.4 µM |  | > 58 µM |  |  | > 100 µM | > 100 µM |  |  |  |  |  |  |  |  |  |  |
| COc1ccc(C2C3CCCC(C3=O)C(c3ccc(OC)cc3)N2N=O)cc1 (centres undefined) | > 88.2 µM | > 70.7 µM | > 86.5 µM | > 66 µM |  | 38.2 µM |  |  | > 100 µM | 45.1 µM |  |  |  |  |  |  |  |  |  |  |
| ClCc1cccc(CSc2ncnc3c2ncn3Cc2cccc(CCl)c2)c1 | 18.4 µM | 6.95 µM | 3.33 µM | 15 µM | 3.23 µM | 3.3 µM | 3.82 µM | 3.67 µM | 3.47 µM | 6.81 µM | 4.54 µM | 1600 nM | 1.8 µM | 2.71 µM | 1710 nM | 1590 nM | 1.93 µM | 1710 nM | 2580 nM | 1.69 µM |
| COc1ccc2c(c1)c(=O)c1c(NCCN(C)C)ccc3nnn2c31 | 12.8 µM | 10.3 µM | 15.4 µM | 15.5 µM | 16.2 µM |  |  |  | 9.11 µM | 19.7 µM |  |  |  |  |  |  |  |  |  |  |
| CCOC(=O)Cc1cnc(NC(NC(=O)CC)(C(F)(F)F)C(F)(F)F)s1 |  | > 100 µM | > 100 µM | > 100 µM | > 100 µM | > 100 µM | > 100 µM | > 100 µM |  | > 100 µM |  |  |  |  |  |  |  |  |  |  |
| COc1ccc(N2C(=O)C3c4[nH]c5ccc(F)cc5c4C4CCC(C(C)(C)C)CC4C3C2=O)cc1 (centres undefined) | > 10 µM | > 10 µM | > 10 µM |  | > 10 µM | > 10 µM | > 10 µM | > 10 µM | > 10 µM | > 10 µM |  |  |  |  |  |  |  |  |  |  |
| O=C(NCCNc1nccc(-c2c(-c3cccc(O)c3)nc3sccn23)n1)c1ccccc1 | 46.5 µM | 34.1 µM | 94.2 µM | > 100 µM | 12.3 µM | 14.9 µM | 31.5 µM | 12.8 µM | 79.5 µM | 12.9 µM | 9.21 µM | 3380 nM | 23.5 µM | 9.11 µM | 434 nM | 3240 nM | 7.05 µM | 578 nM | 2940 nM | 18 µM |
| O=C(NNS(=O)(=O)c1ccccc1)c1cccnc1 | > 100 µM | > 100 µM | > 100 µM | > 100 µM | > 100 µM | > 100 µM | > 100 µM | > 100 µM | > 100 µM | > 100 µM |  |  |  |  |  |  |  |  |  |  |
